Where two headings read alike, the source gives them in different places.
Tests used:
[1] = Example 4 Group B: plasma pharmacokinetics in genotype 1 HCV-infected subjects (LC/MS/MS); conditions: human, in vivo, fasted; for AUC(0-inf) / Cmax / half-life: mean ± SD; for AUC(0-inf): read-out: AUC∞ of Compound I; for Cmax: read-out: Cmax of Compound I; for half-life: read-out: t1/2 of Compound I (converted); for Tmax: median, read-out: Tmax of Compound I
Protocol: Five sequential cohorts of 3 HCV-infected subjects (HCV) per cohort received under fasted conditions open-label Compound I at single ascending doses of 10, 25, 50, 150, and 300 mg (below, “Group B”).
Compound I was provided as size 0, white, hard hydroxypropyl methylcellulose (HPMC) capsules for oral administration at 5 mg, 25 mg, and 50 mg strengths. The same powder blend containing 33.3% weight/weight (w/w) Compound I, a diluent, and a disintegrant is used to fill the capsules for all dose strengths. Matching placebo capsules will also be provided. Storage conditions will be provided on the study drug container label.
(§1) For Groups A and B, dosing occurred between approximately 08:00 AM and 10:00 AM on each dosing day. Dosing was fasted for all subjects in Groups A and B. For fasted dosing, subjects observed a fasting period of approximately 10 hours prior to each dose and for an additional 4 hours post-dose.
Plasma samples were obtained up to 120 hours after dosing and the levels of Compound I and its Nucleoside metabolite were measured by using validated LC/MS/MS methodology. Plasma pharmacokinetic parameters were obtained by using non-compartmental analysis with parameters reported as mean±standard deviation (SD) except for Tmax where median (min-max) is shown.

[2] = Example 4 Group A: safety (adverse events) in healthy volunteers; type: in vivo, human
Protocol: Six sequential cohorts of 8 health volunteers per cohort were randomized via a computer-generated randomization list in the ratio of 2:6. Two of the healthy volunteers (HV) received placebo and the remaining six received Compound I under fasted conditions at single ascending doses of 10, 25, 50, 150, or 300 mg, or multiple doses at 300 mg QD for 7 days (below, “Group A”).
as §1
Safety measurements included clinical history, routine laboratory evaluation, physical examination, 12-lead ECG, vital signs, adverse event (AE) assessment.

SMILES: CC(C)OC(=O)[C@@H](C)N[P@@](=O)(OC[C@H]1O[C@@H](n2ccc(=O)[nH]c2=O)[C@](C)(Cl)[C@@H]1O)Oc1ccccc1 [Compound I]
- AUC(0-inf) ([1]; 10 mg single dose): 0.04 ± 0.0126 µg·h/mL
- Cmax ([1]; 10 mg single dose): 0.0261 ± 0.0119 µg/mL
- half-life ([1]; 10 mg single dose): 1.47 ± 0.7 h
- Tmax ([1]; 10 mg single dose): 0.5 h
- AUC(0-inf) ([1]; 25 mg single dose): 0.14 ± 0.0688 µg·h/mL
- Cmax ([1]; 25 mg single dose): 0.0684 ± 0.0187 µg/mL
- half-life ([1]; 25 mg single dose): 0.97 ± 0.29 h
- Tmax ([1]; 25 mg single dose): 1 h
- AUC(0-inf) ([1]; 50 mg single dose): 0.197 ± 0.0401 µg·h/mL
- Cmax ([1]; 50 mg single dose): 0.0919 ± 0.0107 µg/mL
- half-life ([1]; 50 mg single dose): 1.19 ± 0.46 h
- Tmax ([1]; 50 mg single dose): 1 h
- AUC(0-inf) ([1]; 150 mg single dose): 0.664 ± 0.16 µg·h/mL
- Cmax ([1]; 150 mg single dose): 0.297 ± 0.034 µg/mL
- half-life ([1]; 150 mg single dose): 1.13 ± 0.29 h
- Tmax ([1]; 150 mg single dose): 0.5 h
- AUC(0-inf) ([1]; 300 mg single dose): 0.818 ± 0.256 µg·h/mL
- Cmax ([1]; 300 mg single dose): 0.367 ± 0.537 µg/mL
- half-life ([1]; 300 mg single dose): 1.58 ± 0.02 h
- Tmax ([1]; 300 mg single dose): 1 h
- Adverse event: Abdominal discomfort ([2]; 10 mg single dose (n = 6)): 0 n, %
- Adverse event: Abnormal feces ([2]; 10 mg single dose (n = 6)): 0 n, %
- Adverse event: Constipation ([2]; 10 mg single dose (n = 6)): 0 n, %
- Adverse event: Dizziness ([2]; 10 mg single dose (n = 6)): 0 n, %
- Adverse event: Dry mouth ([2]; 10 mg single dose (n = 6)): 0 n, %
- Adverse event: Dry skin ([2]; 10 mg single dose (n = 6)): 0 n, %
- Adverse event: Erythema ([2]; 10 mg single dose (n = 6)): 0 n, %
- Adverse event: Flushing ([2]; 10 mg single dose (n = 6)): 0 n, %
- Adverse event: Headache ([2]; 10 mg single dose (n = 6)): 0 n, %
- Adverse event: Menstruation delayed ([2]; 10 mg single dose (n = 6)): 0 n, %
- Adverse event: Musculoskeletal stiffness ([2]; 10 mg single dose (n = 6)): 0 n, %
- Adverse event: Nausea ([2]; 10 mg single dose (n = 6)): 0 n, %
- Adverse event: Palpitations ([2]; 10 mg single dose (n = 6)): 0 n, %
- Adverse event: Pancreatic enzymes increased ([2]; 10 mg single dose (n = 6)): 0 n, %
- Adverse event: Procedural nausea ([2]; 10 mg single dose (n = 6)): 0 n, %
- Adverse event: Vessel puncture site bruise ([2]; 10 mg single dose (n = 6)): 0 n, %
- Adverse event: Vessel puncture site pain ([2]; 10 mg single dose (n = 6)): 0 n, %
- Adverse event: Vomiting ([2]; 10 mg single dose (n = 6)): 0 n, %
- Subjects with AE ([2]; 10 mg single dose (n = 6)): 0 n, %
- Adverse event: Abdominal discomfort ([2]; 25 mg single dose (n = 6)): 0 n, %
- Adverse event: Abnormal feces ([2]; 25 mg single dose (n = 6)): 0 n, %
- Adverse event: Constipation ([2]; 25 mg single dose (n = 6)): 0 n, %
- Adverse event: Dizziness ([2]; 25 mg single dose (n = 6)): 0 n, %
- Adverse event: Dry mouth ([2]; 25 mg single dose (n = 6)): 0 n, %
- Adverse event: Dry skin ([2]; 25 mg single dose (n = 6)): 0 n, %
- Adverse event: Erythema ([2]; 25 mg single dose (n = 6)): 0 n, %
- Adverse event: Flushing ([2]; 25 mg single dose (n = 6)): 0 n, %
- Adverse event: Headache ([2]; 25 mg single dose (n = 6)): 0 n, %
- Adverse event: Menstruation delayed ([2]; 25 mg single dose (n = 6)): 0 n, %
- Adverse event: Musculoskeletal stiffness ([2]; 25 mg single dose (n = 6)): 0 n, %
- Adverse event: Nausea ([2]; 25 mg single dose (n = 6)): 0 n, %
- Adverse event: Palpitations ([2]; 25 mg single dose (n = 6)): 0 n, %
- Adverse event: Pancreatic enzymes increased ([2]; 25 mg single dose (n = 6)): 1 (16.7) n, %
- Adverse event: Procedural nausea ([2]; 25 mg single dose (n = 6)): 1 (16.7) n, %
- Adverse event: Vessel puncture site bruise ([2]; 25 mg single dose (n = 6)): 0 n, %
- Adverse event: Vessel puncture site pain ([2]; 25 mg single dose (n = 6)): 0 n, %
- Adverse event: Vomiting ([2]; 25 mg single dose (n = 6)): 0 n, %
- Subjects with AE ([2]; 25 mg single dose (n = 6)): 2 (33.3) n, %
- Adverse event: Abdominal discomfort ([2]; 50 mg single dose (n = 6)): 1 (16.7) n, %
- Adverse event: Abnormal feces ([2]; 50 mg single dose (n = 6)): 0 n, %
- Adverse event: Constipation ([2]; 50 mg single dose (n = 6)): 0 n, %
- Adverse event: Dizziness ([2]; 50 mg single dose (n = 6)): 1 (16.7) n, %
- Adverse event: Dry mouth ([2]; 50 mg single dose (n = 6)): 0 n, %
- Adverse event: Dry skin ([2]; 50 mg single dose (n = 6)): 0 n, %
- Adverse event: Erythema ([2]; 50 mg single dose (n = 6)): 0 n, %
- Adverse event: Flushing ([2]; 50 mg single dose (n = 6)): 0 n, %
- Adverse event: Headache ([2]; 50 mg single dose (n = 6)): 1 (16.7) n, %
- Adverse event: Menstruation delayed ([2]; 50 mg single dose (n = 6)): 0 n, %
- Adverse event: Musculoskeletal stiffness ([2]; 50 mg single dose (n = 6)): 0 n, %
- Adverse event: Nausea ([2]; 50 mg single dose (n = 6)): 0 n, %
- Adverse event: Palpitations ([2]; 50 mg single dose (n = 6)): 0 n, %
- Adverse event: Pancreatic enzymes increased ([2]; 50 mg single dose (n = 6)): 0 n, %
- Adverse event: Procedural nausea ([2]; 50 mg single dose (n = 6)): 0 n, %
- Adverse event: Vessel puncture site bruise ([2]; 50 mg single dose (n = 6)): 0 n, %
- Adverse event: Vessel puncture site pain ([2]; 50 mg single dose (n = 6)): 0 n, %
- Adverse event: Vomiting ([2]; 50 mg single dose (n = 6)): 0 n, %
- Subjects with AE ([2]; 50 mg single dose (n = 6)): 2 (33.3) n, %
- Adverse event: Abdominal discomfort ([2]; 150 mg (n = 6)): 1 (16.7) n, %
- Adverse event: Abnormal feces ([2]; 150 mg (n = 6)): 2 (33.3) n, %
- Adverse event: Constipation ([2]; 150 mg (n = 6)): 0 n, %
- Adverse event: Dizziness ([2]; 150 mg (n = 6)): 2 (33.3) n, %
- Adverse event: Dry mouth ([2]; 150 mg (n = 6)): 1 (16.7) n, %
- Adverse event: Dry skin ([2]; 150 mg (n = 6)): 0 n, %
- Adverse event: Erythema ([2]; 150 mg (n = 6)): 1 (16.7) n, %
- Adverse event: Flushing ([2]; 150 mg (n = 6)): 1 (16.7) n, %
- Adverse event: Headache ([2]; 150 mg (n = 6)): 1 (16.7) n, %
- Adverse event: Menstruation delayed ([2]; 150 mg (n = 6)): 0 n, %
- Adverse event: Musculoskeletal stiffness ([2]; 150 mg (n = 6)): 0 n, %
- Adverse event: Palpitations ([2]; 150 mg (n = 6)): 0 n, %
- Adverse event: Pancreatic enzymes increased ([2]; 150 mg (n = 6)): 0 n, %
- Adverse event: Procedural nausea ([2]; 150 mg (n = 6)): 0 n, %
- Adverse event: Vessel puncture site bruise ([2]; 150 mg (n = 6)): 0 n, %
- Adverse event: Vessel puncture site pain ([2]; 150 mg (n = 6)): 0 n, %
- Adverse event: Vomiting ([2]; 150 mg (n = 6)): 1 (16.7) n, %
- Subjects with AE ([2]; 150 mg (n = 6)): 4 (66.7) n, %
- Adverse event: Abdominal discomfort ([2]; 300 mg QD x 7 days (n = 6)): 0 n, %
- Adverse event: Abnormal feces ([2]; 300 mg QD x 7 days (n = 6)): 0 n, %
- Adverse event: Constipation ([2]; 300 mg QD x 7 days (n = 6)): 0 n, %
- Adverse event: Dizziness ([2]; 300 mg QD x 7 days (n = 6)): 0 n, %
- Adverse event: Dry mouth ([2]; 300 mg QD x 7 days (n = 6)): 0 n, %
- Adverse event: Dry skin ([2]; 300 mg QD x 7 days (n = 6)): 0 n, %
- Adverse event: Erythema ([2]; 300 mg QD x 7 days (n = 6)): 0 n, %
- Adverse event: Flushing ([2]; 300 mg QD x 7 days (n = 6)): 0 n, %
- Adverse event: Headache ([2]; 300 mg QD x 7 days (n = 6)): 0 n, %
- Adverse event: Menstruation delayed ([2]; 300 mg QD x 7 days (n = 6)): 1 (16.7) n, %
- Adverse event: Musculoskeletal stiffness ([2]; 300 mg QD x 7 days (n = 6)): 0 n, %
- Adverse event: Nausea ([2]; 300 mg QD x 7 days (n = 6)): 0 n, %
- Adverse event: Palpitations ([2]; 300 mg QD x 7 days (n = 6)): 1 (16.7) n, %
- Adverse event: Pancreatic enzymes increased ([2]; 300 mg QD x 7 days (n = 6)): 0 n, %
- Adverse event: Procedural nausea ([2]; 300 mg QD x 7 days (n = 6)): 0 n, %
- Adverse event: Vessel puncture site bruise ([2]; 300 mg QD x 7 days (n = 6)): 1 (16.7) n, %
- Adverse event: Vessel puncture site pain ([2]; 300 mg QD x 7 days (n = 6)): 0 n, %
- Adverse event: Vomiting ([2]; 300 mg QD x 7 days (n = 6)): 0 n, %
- Subjects with AE ([2]; 300 mg QD x 7 days (n = 6)): 2 (33.3) n, %
- Adverse event: Abdominal discomfort ([2]; 300 mg single dose (n = 6)): 0 n, %
- Adverse event: Abnormal feces ([2]; 300 mg single dose (n = 6)): 0 n, %
- Adverse event: Constipation ([2]; 300 mg single dose (n = 6)): 0 n, %
- Adverse event: Dizziness ([2]; 300 mg single dose (n = 6)): 1 (16.7) n, %
- Adverse event: Dry mouth ([2]; 300 mg single dose (n = 6)): 0 n, %
- Adverse event: Dry skin ([2]; 300 mg single dose (n = 6)): 0 n, %
- Adverse event: Erythema ([2]; 300 mg single dose (n = 6)): 0 n, %
- Adverse event: Flushing ([2]; 300 mg single dose (n = 6)): 0 n, %
- Adverse event: Headache ([2]; 300 mg single dose (n = 6)): 1 (16.7) n, %
- Adverse event: Menstruation delayed ([2]; 300 mg single dose (n = 6)): 0 n, %
- Adverse event: Musculoskeletal stiffness ([2]; 300 mg single dose (n = 6)): 1 (16.7) n, %
- Adverse event: Nausea ([2]; 300 mg single dose (n = 6)): 1 (16.7) n, %
- Adverse event: Palpitations ([2]; 300 mg single dose (n = 6)): 0 n, %
- Adverse event: Pancreatic enzymes increased ([2]; 300 mg single dose (n = 6)): 0 n, %
- Adverse event: Procedural nausea ([2]; 300 mg single dose (n = 6)): 0 n, %
- Adverse event: Vessel puncture site bruise ([2]; 300 mg single dose (n = 6)): 1 (16.7) n, %
- Adverse event: Vessel puncture site pain ([2]; 300 mg single dose (n = 6)): 0 n, %
- Adverse event: Vomiting ([2]; 300 mg single dose (n = 6)): 0 n, %
- Subjects with AE ([2]; 300 mg single dose (n = 6)): 3 (50.0) n, %

Source: US20170066795A1, “SOLID PRODRUG FORMS OF 2'-CHLORO-2'-METHYL URIDINE FOR HCV” (IDENIX PHARMACEUTICALS LLC, priority 2014, published 2017)
